Laboratory results: US6638964B2, “Sulfonamide-containing indole compounds” (Eisai Co., Ltd., priority 1999, dated 2003)
Converted amounts (≈) assume the structure as drawn.

Key:
[1] = test system: KP-1 cell strain derived from human pancreatic cancer; test: Antitumor effect, KP-1 human pancreatic cancer subcutaneously transplanted to nude mice; assay type: in vivo, nude mice (KSN); conditions: for size of the tumor compared with that in the group to which no drug was administered: 22nd day, KP-1
Method: (§1) In the meanwhile, evaluation of an antitumor effect was carried out in accordance with a method of Koyanagi, et al. (Cancer Res., 94, 1702-1706, 1994) using a KP-1 cell strain derived from human pancreatic cancer and an HCT 116 cell strain derived from human cancer of the colon. The above-mentioned human cancer cells (5^×10^6 cells) were subcutaneously transplanted to nude mice (KSN) of 6 to 7 weeks age and, since the stage where it became to the size of about 100 mm^3, administration of the compound of the present invention was started. In the experiments, ten mice were used for a group to which no drug was administered while, in a drug-administered group, five mice were used for each dose. The dose of 50 mg/kg, 100 mg/kg or 200 mg/kg was continuously administered per os two times a day and the size of the tumor on the 22nd day from the beginning of the administration was compared with that in the group to which no drug was administered. The result was 37%, 30% and 11%, respectively in the KP-1 cell strain derived from human pancreatic cancer and 0.2%, 0.3% and 0.0%, respectively in the HCT 116 cell strain derived from human cancer of the colon in the case of a group to which the compound of Example 1 was administered for example.

aorta pieces of rat = test: Antiangiogenic effect: capillary formation from rat aorta pieces incubated in collagen; assay type: cell-based; conditions: numbers of capillaries formed around the aorta, 7th day from addition of test compound
Method: The inhibition degree of angiogenesis which was observed when aorta pieces of rat were incubated in collagen was defined as an antiangiogenic effect. That is, the aorta excised from male rat of Sprague-Dawley strain (10-12 weeks age) was washed with a Hanks' solution so that fat tissues around there were removed minutely. The aorta was incised to prepare pieces of 2 mm square and they were allowed to stand in a 24-well plate holding the endothelial cells upside. Then, 500 μl of neutralized Type I collagen (Cell Matrix Type I-A; manufactured by Nitta Gelatin) were poured over each well and allowed to stand at room temperature for about 20 minutes in a clean bench to solidify the gel. After confirming that the gel was solidified, 500 μl of MCDB 131 medium (manufactured by Chlorella Kogyo) were added thereto followed by incubating in a CO2 incubator (5% CO2) at 37° C. On the next day, the culture medium was exchanged with 500 μl of MCDB 131 medium containing the test compound and the incubation was continued. After three days, the medium was again exchanged with 500 μl of MCDB 131 medium containing the test compound and, at the stage of the 7th day from the initiation of addition of the test compound, numbers of capillaries formed around the aorta were counted under a microscope. The solution containing the test compound was prepared in a three-fold dilution system where 10 μg/ml was the highest concentration.
Inhibiting rate was calculated from the following formula and 50% inhibiting concentration (IC50) for each test compound was determined.
(§2) Inhibiting Rate (%)=(C−T)/C^×100
C: Numbers of capillaries when no compound was added
T: Numbers of capillaries when a compound was added

Mouse B16 melanoma cells = test: Inhibitory effect of proliferation of mouse B16 melanoma (MTT method); assay type: cell-based; conditions: 72 h, incubating for 3 days
Method: Mouse B16 melanoma cells incubated in a Dulbecco-modified Eagle medium (DMED; manufactured by Nissui Seiyaku) containing 10% of fetal bovine serum, 100 Units/ml of penicillin and 100 μg/ml of streptomycin were adjusted to 2^×10^4 cells/ml and each 100 μl thereof were separately placed on a 96-well plate. After an incubation was carried out in a CO2 incubator (5% CO2) at 37° C. for one night, then 100 μl of the above culture containing a test compound diluted in a 3-fold series were added thereto followed by incubating for 3 days and the cell numbers at that time were measured by an MTT method. Incidentally, a treatment with a 0.33% MTT solution was carried out for 1-2 hour(s).
(§3) Inhibiting rate was calculated from the following formula and 50% inhibiting concentration (IC50) was determined for each compound.
as §2
(§4) C: Absorbance when no compound was added
(§5) T: Absorbance when a compound was added

[2] = test system: Endothelial cells derived from human umbilical vein (HUVEC); test: Inhibitory effect of growth of endothelial cells (MTT method); assay type: cell-based; conditions: 72 h, incubating for three days
Method: Endothelial cells derived from human umbilical vein (HUVEC; manufactured by Sanko Junyaku) incubated in an EGM medium (manufactured by Sanko Junyaku) containing 100 Units of penicillin and 100 μg/ml of streptomycin were adjusted to 0.8-1×10^4 cells/ml and each 100 μl were separately placed on a 96-well plate. After incubating in a CO2 incubator (5% CO2) at 37 ° C. overnight, 100 μl of EGM medium containing test compound diluted in a three-fold manner were added thereto followed by incubating for three days. The cell numbers at that time were measured by MTT method. That is, 50 μl of phosphate buffer containing 0.33% of 3-(4,5-dimethylthiazol-2-yl)-2,5-diphenyltetrazolium bromide (MTT) was added thereto and incubation was continued for 3-4 hours. Then, after the supernatant liquid of the culture was removed, 100 μl of dimethyl sulfoxide (DMSO) was added to dissolve a formazane which was formed in the cells and the absorbance at the wave length of 540 nm was measured by use of plate reader (manufactured by Corona Denki).
as §3
Inhibition Rate (%)=(C−T)/C×100
as §4, §5

[3] = test system: HCT 116 cell strain derived from human cancer of the colon; test: Antitumor effect, HCT 116 human colon cancer subcutaneously transplanted to nude mice; assay type: in vivo, nude mice (KSN); conditions: 22nd day
Method: as §1

[4] = 50 mg/kg per os two times a day
[5] = 100 mg/kg per os two times a day
[6] = 200 mg/kg per os two times a day

SMILES	size of the tumor compared with that in the group to which no drug was administered [1, 4] [%]	size of the tumor compared with that in the group to which no drug was administered [1, 5] [%]	size of the tumor compared with that in the group to which no drug was administered [1, 6] [%]	antitumor effect ([1]; overall statement for KP-1 and HCT 116 transplanted nude mice)	IC50 (aorta pieces of rat) [µg/mL]	IC50 (Mouse B16 melanoma cells) [µg/mL]	IC50 [2] [µg/mL]	size of the tumor compared with that in the group to which no drug was administered [3, 4] [%]	size of the tumor compared with that in the group to which no drug was administered [3, 5] [%]	size of the tumor compared with that in the group to which no drug was administered [3, 6] [%]
Cc1ccc(NS(=O)(=O)c2cccc(C#N)c2)c2[nH]cc(C#N)c12 [Example 1, 3-Cyano-N-(3-cyano-4-methyl-1H-indol-7-yl)benzenesulfonamide]	37	30	11	significant antitumor effect	0.08 (≈ 0.238 µM)	10 (≈ 29.7 µM)	0.1 (≈ 0.297 µM)	0.2	0.3	0.0
Cc1ccc(NS(=O)(=O)c2ccc(Cl)nc2)c2[nH]cc(C#N)c12 [Example 2, 6-Chloro-N-(3-cyano-4-methyl-1H-indol-7-yl)-3-pyridinesulfonamide]	–	–	–	–	0.07 (≈ 0.202 µM)	15 (≈ 43.3 µM)	0.12 (≈ 0.346 µM)	–	–	–
Cc1cc(NS(=O)(=O)c2ccc(S(N)(=O)=O)cc2)c2[nH]cc(Br)c2c1 [Example 3, N-(3-Bromo-5-methyl-1H-indole-7-yl)-4-sulfamoylbenzenesulfonamide]	–	–	–	–	0.1 (≈ 0.225 µM)	21 (≈ 47.3 µM)	0.62 (≈ 1.4 µM)	–	–	–
Nc1ccc(S(=O)(=O)Nc2cc(Br)cc3c(Cl)c[nH]c23)cn1 [Example 4, 6-Amino-N-(5-bromo-3-chloro-1H-indole-7-yl)-3-pyridinesulfonamide]	–	–	–	–	0.1 (≈ 0.249 µM)	19 (≈ 47.3 µM)	1.3 (≈ 3.24 µM)	–	–	–
Cc1cc(NS(=O)(=O)c2cccc(C#N)c2)c2[nH]cc(Br)c2c1 [Example 5, N-(3-Bromo-5-methyl-1H-indole-7-yl)-3-cyanobenzenesulfonamide]	–	–	–	–	0.15 (≈ 0.384 µM)	8.8 (≈ 22.5 µM)	0.98 (≈ 2.51 µM)	–	–	–
N#Cc1ccc(S(=O)(=O)Nc2ccc(Br)c3cc[nH]c23)cc1 [Example 6, N-(4-Bromo-1H-indole-7-yl)-4-cyanobenzenesulfonamide]	–	–	–	–	0.06 (≈ 0.159 µM)	6.5 (≈ 17.3 µM)	1.2 (≈ 3.19 µM)	–	–	–
Nc1ccc(S(=O)(=O)Nc2ccc(Cl)c3cc[nH]c23)cn1 [Example 7, 6-Amino-N-(4-chloro-1H-indole-7-yl)-3-pyridinesulfonamide]	–	–	–	–	0.42 (≈ 1.3 µM)	7.5 (≈ 23.2 µM)	0.98 (≈ 3.04 µM)	–	–	–
Nc1ccc(S(=O)(=O)Nc2ccc(Cl)c3c(Br)c[nH]c23)cn1 [Example 8, 6-Amino-N-(3-bromo-4-chloro-1H-indole-7-yl)-3-pyridinesulfonamide]	–	–	–	–	0.05 (≈ 0.124 µM)	19 (≈ 47.3 µM)	0.49 (≈ 1.22 µM)	–	–	–
Cc1cc(NS(=O)(=O)c2ccc(C#N)s2)c2[nH]cc(Br)c2c1 [Example 9, N-(3-Bromo-5-methyl-1H-indole-7-yl)-5-cyano-2-thiophenesulfonamide]	–	–	–	–	0.05 (≈ 0.126 µM)	8.4 (≈ 21.2 µM)	1.6 (≈ 4.04 µM)	–	–	–
Nc1ncc(S(=O)(=O)Nc2ccc(Br)c3c(Cl)c[nH]c23)cn1 [Example 10, 2-Amino-N-(4-bromo-3-chloro-1H-indole-7-yl)-5-pyrimidinesulfonamide]	–	–	–	–	0.06 (≈ 0.149 µM)	23 (≈ 57.1 µM)	0.38 (≈ 0.944 µM)	–	–	–
